According to PMC9537177, “A VEGFR targeting peptide-drug conjugate (PDC) suppresses tumor angiogenesis in a TACE model for hepatocellular carcinoma therapy” (Cell Death Discovery, 2022):
Read-outs that look alike come from different tables or passages of the source. Square brackets hold non-standard residues; d marks the D form. Peptide text beside a SMILES is read from it. Aib = CC(C)(N)C(=O)O

Legend:
[1] = system: Huh7 cells; test: Cell viability (CCK8) assay, Huh7; type: cell-based, human; conditions: for IC50: CCK8, 48 h treatment in medium with 5% FBS, absorbance 450 nm, mean ± SD, read-out: IC50, cytotoxicity in Huh7 cells
Experimental: (§1) All reagents were purchased from Gibco. All these cells were routinely tested for mycoplasma contamination and tested negative and maintained in a humidified incubator containing 5% CO2 at 37 °C. Cell viability for different cell lines were measured by cell counting kit-8 (CCK8) assays. The cells were incubated on a 96-well plate for 24 h in growth medium prior to drug treatment. […] Then CCK8 (10 μL) was added and the cells were incubated for 1 h at 37 °C with 5% CO2. Absorbance was measured with a microplate reader (Bio-Rad) at a wavelength of 450 nm.

[2] = system: VX2 liver tumor; test: VX2 rabbit liver tumor model with TAE/TACE: tumor growth, necrosis, apoptosis, proliferation, angiogenesis; type: in vivo, New Zealand white rabbits; conditions: for mean tumor volume at 7 days after TAE procedure: 0.5 mL lipiodol emulsion into tumor-feeding artery, QR-KLU 4 mg/kg; for mean tumor volume at 7 days after TAE procedure / tumor growth rate (V7/V0 × 100%) / mean tumor necrosis rate: DOX 2 mg/kg, KLU 4 mg/kg; for mean tumor volume at 7 days after TAE procedure / mean tumor volume one day before TAE procedure: MR images, 24 rabbits evenly in four groups; for mean tumor volume at 7 days after TAE procedure / mean tumor necrosis rate / mean tumor volume one day before TAE procedure: mean ± SD; for tumor growth rate (V7/V0 × 100%): 7 days after TAE, NS group 276.4%; for tumor growth rate (V7/V0 × 100%) / mean tumor necrosis rate: QR-KLU 4 mg/kg in lipiodol; for mean proportion of apoptotic cells in tumor (TUNEL) / mean proportion of proliferating cells in tumor (Ki67) / mean tumor necrosis rate: 7 days after treatment; for mean proportion of apoptotic cells in tumor (TUNEL) / mean proportion of proliferating cells in tumor (Ki67): versus NS group; for mean tumor necrosis rate: H&E staining; for mean tumor volume one day before TAE procedure: baseline, V = a*b^2/2, VX2 rabbits
Experimental: New Zealand white rabbits (2.5-3 kg) were purchased from the Laboratory Animal Center of Tongji Medical College of Huazhong University of Science and Technology (Wuhan, China). All the animal experimental procedures were performed in accordance with the National Institutes of Health Guidelines for the Care and Use of Laboratory Animals and the protocol was approved by the Ethics Committee of Tongji Medical College, Huazhong University of Science and Technology. Blinding was not possible in most animal experiments. The rabbit VX2 liver tumor model was established according to the method reported by Qian K et al.. […] The acquisition parameters of the sequence are as follows: […], TR 2750 ms, TE 65 ms, the field of view 120 mm × 120 mm, Slice thickness 3 mm in the transverse plane, matrix 152 × 152. The multi-vane technique was used to reduce artifacts and improve image quality, acquisition time 3 min […]; […] Seven days after TACE procedure, tumor size was evaluated again by MR scan and the tumor volume was calculated by formula: V = a * b^2/2 (a, long diameter; b, short diameter). And tumor growth rate was calculated by formula: […] Finally, the VX2 rabbits were sacrificed and the tumor tissues were harvested for biochemical analysis and histopathological examination. […] The IHC staining procedures were performed as previously described. Briefly, the sections were blocked in 3% H2O2 for 25 min and then incubated with goat serum for 15 min. Subsequently, the sections were first washed and incubated with anti-VEGF (1:200, Abcam, USA), and anti-CD31 (1:20; Abcam, USA) overnight at 4 °C, and then incubated with second antibody (Abcam, USA) at 37 °C for 50 min. Next, the sections were stained with 3, 3'-diaminobenzidine (DAB, Service bio, Wuhan […] Biotechnology Co., Ltd., China) for 6 min and rinsed and stained in hematoxylin for 30 s. The sections were then dehydrated in gradient alcohol and sealed in neutral resins. VEGF expression was assessed by semiquantitative IHC based on staining intensity and density, the staining intensity was scored as 0 (negative), 1 (weak), 2 (moderate), and 3 (strong), while the staining density was scored on the basis of the percentage of positively stained cells: 0 (0%), 1 (1-25%), 2 (26-50%), 3 (51-75%), and 4 (76-100%). The total VEGF IHC score was calculated by multiplying the intensity score by the density score. Microvessel density (MVD) was calculated according to the method developed by Weidner et al.

[3] = system: HUVEC cells; test: Cell viability (CCK8) assay, HUVEC; type: cell-based, human
Experimental: as §1

[4] = system: HUVEC cells; test: Wound-healing assay of HUVEC cells; type: cell-based, human; conditions: 24 h
Experimental: Wound-healing assay was performed according to the protocols reported by Liang et al.. Briefly, HUVEC cells were plated into 12-well plate and grown to create a confluent monolayer. The monolayer was grazed in a straight line to create a “scratch” with a pipette tip. Markings were created close to the scratch to be used as reference points. Then cells were treated with different peptides for 24 h at 37 °C. Images were collected with a Leica DFC480 camera on a phase-contrast microscope equipped with a 10 × objective at room temperature. The free area of the wound was measured by image software. Supplementary Figure S1. Wound healing assay to detect the cell migration influenced by different peptides.

[5] = Therapeutic safety in VX2 tumor-bearing rabbits (organ H&E, serum biochemistry); conditions: before and 1, 3, 7 days after treatment; 4 mg/kg in lipiodol via TAE
Experimental: Twenty-four VX2 tumor-burdened rabbits were evenly divided into four groups. After fasting for 12 h, the rabbits were anesthetized by intravenous injection of pentobarbital sodium solution (2 wt.%, 30 mg/kg). The rabbit’s right femoral artery was dissected and a 4-F Cobra catheter (Cook, Inc., Bloomington, Indiana) was inserted into the celiac artery, hepatic arteriography was then performed under the guidance of digital subtraction angiography (DSA), and a 2.7-F coaxial microcatheter (Terumo, Tokyo, Japan) was super-selectively inserted into the tumor donor branch subsequently. The emulsion of drugs and lipiodol were slowly injected into the tumor-feeding artery through the above microcatheter at a speed of 0.5 mL/min. […] After obtaining all DSA images, the sheaths and catheters were removed.
Seven days after treatment, the liver tumors, hearts, lungs, kidneys and spleens were harvested and fixed in 4% phosphate-buffered paraformaldehyde, the specimens were embedded in paraffin blocks and cut into 5‐μm‐thick sections. Following the manufacturer’s guidelines, the sections were stained with haematoxylin and eosin (H&E) for the evaluation of organ toxicity and tumor necrosis, Ki-67 staining and transfer-mediated dUTP nick end labeling (TUNEL) technique were used to detect tumor proliferation and apoptosis, respectively.
Blood samples were collected before treatment and at 1, 3, 7 days after treatment. The blood samples were stood at room temperature for 30 min, and the serum was obtained by centrifugation (room temperature, 8000 rpm, 10 min) for assessment of alanine aminotransferase (ALT), aspartate aminotransferase (AST), total bilirubin (TBIL) and creatinine (CREA). The assays were performed using the commercially ready-made kits following the manufacturers’ instructions.

[6] = system: Huh 7 cells; conditions: 80 μM, 24 h, Annexin V-PI FACS
Experimental: Viable cells, early apoptotic cells, necrotic cells, late apoptotic cells were represented by Q4, Q3, Q2 and Q1 respectively.
(§2) The apoptosis assay was performed according to the manufacturer’s instructions using an Annexin V: Fluorescein Isothiocyanate (FITC) Apoptosis Detection Kit I (BD Pharmingen™). Briefly, Huh 7 or HUVEC cells were seeded in a 12-well plate and allowed to grow for 24 h in medium with 10% FBS. Then, the cells were treated with the different peptides in medium with 5% FBS for 24 h’ incubation. The cells were harvested with 0.25% trypsin/EDTA, washed twice with PBS and suspended in 1 × binding buffer. The suspended cells were treated with FITC-labeled Annexin V and propidium iodide (PI) as the protocol indicated and then analyzed by flow cytometry to determine the apoptotic cells. The cells with positive fluorescence intensity signals for both FITC and PI were used for the apoptotic cell count.

[7] = system: HUVEC cells; test: Annexin V-FITC/PI cell apoptosis assay, HUVEC; type: cell-based, human; conditions: 80 μM, 24 h, Annexin V-PI FACS
Experimental: The improved proapoptotic activity of QR-KLU was further confirmed by Annexin V-PI staining through FACS. Viable cells, early apoptotic cells, necrotic cells, late apoptotic cells were represented by Q4, Q3, Q2 and Q1 respectively. […] Besides, QR-KLU induced cell apoptosis in a dose-dependent manner. […] The percentage of apoptotic cells in KLU peptide at 20 μM were about 25% in both Huh7 cells and HUVEC cells.
as §2
Supplementary Figure S2. Cell apoptosis of HUVEC induced by different peptides. HUVEC cells were treated with PBS, 80μM QR, 20μM KLU, 5μM QR-KLU, 10μM QR-KLU for 24 hours before detection by FACS.

| Molecule | IC50 ([1]; Homo sapiens, Huh-7) [µM] | mean tumor volume at 7 days after TAE procedure [2] [mm^3] | tumor growth rate (V7/V0 × 100%) [2] | mean proportion of apoptotic cells in tumor (TUNEL) [2] | mean proportion of proliferating cells in tumor (Ki67) [2] | mean tumor necrosis rate [2] | mean tumor volume one day before TAE procedure [2] [mm^3] | IC50 [1] [µM] | IC50 ([3]; CCK8, 48 h treatment in medium with 5% FBS, absorbance 450 nm, mean ± SD, read-out: IC50, cytotoxicity in HUVEC cells) [µM] | cell migration of HUVEC (wound epithelial gap) ([4]; 20 μM) | liver and renal toxicity (ALT, AST, TBIL, CREA in serum) [5] | cellular toxicity in Huh7 cells ([1]; CCK8, 48 h, up to 80 μM) | cellular toxicity in HUVEC cells ([3]; CCK8, 48 h, up to 80 μM) | proapoptotic effect in Huh 7 cells [6] | proapoptotic effect in HUVEC cells [7] | cell proliferation or migration of HUVEC (wound healing) ([4]; 80 μM) |
| --- | --- | --- | --- | --- | --- | --- | --- | --- | --- | --- | --- | --- | --- | --- | --- | --- |
| COc1cccc2c1C(=O)c1c(O)c3c(c(O)c1C2=O)C[C@@](O)(C(=O)CO)C[C@@H]3O[C@H]1C[C@H](N)[C@H](O)[C@H](C)O1 [DOX, doxorubicin] | 0.243 ± 0.076 | 1382.9 ± 563.7 | significantly lower than that of the NS group | significantly higher than that in NS group | significantly lower than that in NS group | 81.4% ± 2.3 | 889.0 ± 317.7 |  |  |  |  |  |  |  |  |  |
| CC(=O)N[C@@H](CCCCN)C(=O)N[C@@H](CC(C)C)C(=O)NC(C)(C)C(=O)N[C@@H](CCCCN)C(=O)N[C@@H](CC(C)C)C(=O)NC(C)(C)C(=O)N[C@@H](CCCCN)C(=O)N[C@@H](CCCCN)C(=O)N[C@@H](CC(C)C)C(=O)NC(C)(C)C(=O)N[C@@H](CCCCN)C(=O)N[C@@H](CC(C)C)C(=O)NC(C)(C)C(=O)N[C@@H](CCCCN)C(N)=O [KLU] (Ac-KL[Aib]KL[Aib]KKL[Aib]KL[Aib]K-NH2) |  | 1321.4 ± 210.4 | significantly lower than that of the NS group | significantly higher than that in NS group | significantly lower than that in NS group | 79.5% ± 8.0 | 991.8 ± 114.2 | 36.3 ± 2.7 | 33.8 ± 0.98 | the wound epithelial gap was unchanged or even bigger | no significant liver or renal toxicity |  |  |  |  |  |
| Ac-QKRKRKKSRYKS-NH2 [QR] |  |  |  |  |  |  |  |  |  |  |  | negligible toxicity | negligible toxicity | didn’t show obvious proapoptotic effect | didn’t show obvious proapoptotic effect | not affected |
